Reference: ChEMBL document CHEMBL1134420, “Substituent effects within the DNA binding subunit of CBI analogues of the duocarmycins and CC-1065” (Bioorg Med Chem Lett, 2001)
pIC50: −log10 of the molar value.

Test system: L1210
Assay: Cytotoxic activity against L1210 leukemia cells
Type: functional, cell-based, Mus musculus

SMILES | pIC50 (Mus musculus, L1210) | pIC50 (l1210)
CCCCOc1ccc2[nH]c(C(=O)N3C[C@H]4C[C@@]45C3=CC(=O)c3ccccc35)cc2c1 | 10.30 | 
O=C1C=C2N(C(=O)c3cc4cc(Cl)ccc4[nH]3)C[C@H]3C[C@@]23c2ccccc21 | 9.40 | 
C#Cc1ccc2[nH]c(C(=O)N3C[C@H]4C[C@@]45C3=CC(=O)c3ccccc35)cc2c1 | 9.52 | 
O=C1C=C2N(C(=O)c3cc4c(ccc5ccccc54)[nH]3)CC3CC23c2ccccc21 (stereo in doubt; 5) |  | 6.52
CC(=O)c1cccc2cc(C(=O)N3C[C@H]4C[C@@]45C3=CC(=O)c3ccccc35)[nH]c12 | 9.52 | 
CCC(=O)Nc1ccc2[nH]c(C(=O)N3C[C@H]4C[C@@]45C3=CC(=O)c3ccccc35)cc2c1 | 10.52 | 
O=C1C=C2N(C(=O)c3cc4cc5ccccc5cc4[nH]3)CC3CC23c2ccccc21 (stereo in doubt; 6) |  | 9.30
O=C1C=C2N(C(=O)c3cc4cc5ccccc5cc4[nH]3)CC3CC23c2ccccc21 (stereo in doubt; 7) |  | 6.40
CC(=O)c1ccc2[nH]c(C(=O)N3C[C@H]4C[C@@]45C3=CC(=O)c3ccccc35)cc2c1 | 11.70 | 
COc1cc2cc(C(=O)N3CC4CC45C3=CC(=O)c3ccccc35)[nH]c2c(OC)c1OC (stereo in doubt) |  | 8.70
NC(=O)N1CCc2c1ccc1[nH]c(C(=O)N3CC4CC45C3=CC(=O)c3ccccc35)cc21 (stereo in doubt; (+)) |  | 11.30
O=C1C=C2N(C(=O)c3cc4c(ccc5ccccc54)[nH]3)CC3CC23c2ccccc21 (stereo in doubt; 4) |  | 8.30
CC#Cc1ccc2[nH]c(C(=O)N3C[C@H]4C[C@@]45C3=CC(=O)c3ccccc35)cc2c1 | 9.00 | 
N#Cc1ccc2[nH]c(C(=O)N3C[C@H]4C[C@@]45C3=CC(=O)c3ccccc35)cc2c1 | 10.52 | 
CC(=O)N(C)c1ccc2[nH]c(C(=O)N3C[C@H]4C[C@@]45C3=CC(=O)c3ccccc35)cc2c1 | 10.52 | 
O=C1C=C2N(C(=O)c3cc4ccccc4[nH]3)C[C@H]3C[C@@]23c2ccccc21 | 8.57 | 

SMILES | pIC50 (Mus musculus, L1210) | pIC50 (l1210)
O=C1C=C2N(C(=O)c3cc4cc(Br)ccc4[nH]3)C[C@H]3C[C@@]23c2ccccc21 | 9.30 | 
CCCC(=O)c1ccc2[nH]c(C(=O)N3C[C@H]4C[C@@]45C3=CC(=O)c3ccccc35)cc2c1 | 10.70 | 
NC(=O)N1CCc2c1ccc1[nH]c(C(=O)N3CC4CC45C3=CC(=O)c3ccccc35)cc21 (stereo in doubt; (-)) |  | ≤ 9.42
COc1cccc2cc(C(=O)N3C[C@H]4C[C@@]45C3=CC(=O)c3ccccc35)[nH]c12 | 9.52 | 
COc1cc2cc(C(=O)N3CC4CC45C3=CC(=O)c3ccccc35)[nH]c2c(OC)c1OC (single isomer, unassigned; (+)) |  | 10.52
CCC(=O)c1ccc2[nH]c(C(=O)N3C[C@H]4C[C@@]45C3=CC(=O)c3ccccc35)cc2c1 | 11.52 | 
CC(=O)Nc1ccc2[nH]c(C(=O)N3C[C@H]4C[C@@]45C3=CC(=O)c3ccccc35)cc2c1 | 10.52 | 
Cc1ccc2[nH]c(C(=O)N3C[C@H]4C[C@@]45C3=CC(=O)c3ccccc35)cc2c1 | 8.70 | 
CCOc1ccc2[nH]c(C(=O)N3C[C@H]4C[C@@]45C3=CC(=O)c3ccccc35)cc2c1 | 11.00 | 
COc1ccc2[nH]c(C(=O)N3C[C@H]4C[C@@]45C3=CC(=O)c3ccccc35)cc2c1 | 10.30 | 
N#Cc1cccc2cc(C(=O)N3C[C@H]4C[C@@]45C3=CC(=O)c3ccccc35)[nH]c12 | 9.52 | 
[N-]=[N+]=Nc1ccc2[nH]c(C(=O)N3C[C@H]4C[C@@]45C3=CC(=O)c3ccccc35)cc2c1 | 9.52 | 
CCCC(=O)Nc1ccc2[nH]c(C(=O)N3C[C@H]4C[C@@]45C3=CC(=O)c3ccccc35)cc2c1 | 10.52 | 
O=C1C=C2N(C(=O)c3cc4cc(OCc5ccccc5)ccc4[nH]3)C[C@H]3C[C@@]23c2ccccc21 | 10.30 | 
CCCOc1ccc2[nH]c(C(=O)N3C[C@H]4C[C@@]45C3=CC(=O)c3ccccc35)cc2c1 | 10.40 | 
